Test system: MDA-MB-468
Test: normalised response (% of control), CellTox Green; higher = less cell death (100 = DMSO, 0 = benzethonium chloride kill control)
Details: incubation time: 72 h
Method in brief: (§1)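 Each value is the plate-normalised signal at one concentration of the series. Breast cancer cell lines (20 µl suspension) were incubated 72 h in 384-well plates with compound at 5 concentrations in 10-fold steps over a compound-specific 10,000-fold range. CellTox Green and then CellTiter-Glo were read, and each plate was scaled to 0.1 % DMSO (100) and a positive kill control (0).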

Row | SMILES | normalised response [%]
1 | O=C(Cc1ccc(-c2ccc(OCCN3CCOCC3)cc2)cn1)NCc1ccccc1 [KX2-391] (1000 nM) | 23.4
2 | C=CCc1cccc(/C=N/NC(=O)CN2CCN(Cc3ccccc3)CC2)c1O [PAC-1] (1000 nM) | 128
3 | Oc1ncc(N(CCCl)CCCl)c(O)n1 [Uracil mustard] (1000 nM) | 120
4 | O=C(O)C(=O)O.[NH-][C@@H]1CCCC[C@H]1[NH-].[Pt+2] [Oxaliplatin] (1000 nM) | 157
5 | Nc1nc2[nH]cc(CCc3ccc(C(=O)N[C@@H](CCC(=O)O)C(=O)O)cc3)c2c(=O)[nH]1 [Pemetrexed] (1000 nM) | 122
6 | O=C(O)C1(C(=O)O)CCC1.[NH2-].[NH2-].[Pt+2] [Carboplatin] (1000 nM) | 143
7 | CC[C@H](C)C(=O)O[C@H]1C[C@H](O)C=C2C=C[C@H](C)[C@H](CC[C@@H](O)C[C@@H](O)CC(=O)O)[C@H]21 [Pravastatin] (1000 nM) | 134
8 | Cc1cnc(NC(=O)Nc2cc(Br)c(C)cc2OC[C@@H]2CNCCO2)cn1 [Rabusertib] (100 nM) | 128
9 | COc1cc2nccc(Oc3ccc(NC(=O)Nc4cc(C)on4)c(Cl)c3)c2cc1OC [Tivozanib] (1000 nM) | 138

Test system: MDA-MB-436
Test: as above
Details: incubation time: 72 h
Method in brief: as §1

Row | SMILES | normalised response [%]
10 | O=C(Cc1ccc(-c2ccc(OCCN3CCOCC3)cc2)cn1)NCc1ccccc1 [KX2-391] (1000 nM) | 83.1
11 | C=CCc1cccc(/C=N/NC(=O)CN2CCN(Cc3ccccc3)CC2)c1O [PAC-1] (1000 nM) | 89.7
12 | Oc1ncc(N(CCCl)CCCl)c(O)n1 [Uracil mustard] (1000 nM) | 98.7
13 | O=C(O)C(=O)O.[NH-][C@@H]1CCCC[C@H]1[NH-].[Pt+2] [Oxaliplatin] (1000 nM) | 95.7
14 | Nc1nc2[nH]cc(CCc3ccc(C(=O)N[C@@H](CCC(=O)O)C(=O)O)cc3)c2c(=O)[nH]1 [Pemetrexed] (1000 nM) | 108
15 | O=C(O)C1(C(=O)O)CCC1.[NH2-].[NH2-].[Pt+2] [Carboplatin] (1000 nM) | 95.4
16 | CC[C@H](C)C(=O)O[C@H]1C[C@H](O)C=C2C=C[C@H](C)[C@H](CC[C@@H](O)C[C@@H](O)CC(=O)O)[C@H]21 [Pravastatin] (1000 nM) | -66.6
17 | Cc1cnc(NC(=O)Nc2cc(Br)c(C)cc2OC[C@@H]2CNCCO2)cn1 [Rabusertib] (100 nM) | 110
18 | COc1cc2nccc(Oc3ccc(NC(=O)Nc4cc(C)on4)c(Cl)c3)c2cc1OC [Tivozanib] (1000 nM) | 70.6

Test system: CAL-120
Test: as above
Details: incubation time: 72 h
Method in brief: as §1

Row | SMILES | normalised response [%]
19 | O=C(Cc1ccc(-c2ccc(OCCN3CCOCC3)cc2)cn1)NCc1ccccc1 [KX2-391] (1000 nM) | 90.4
20 | C=CCc1cccc(/C=N/NC(=O)CN2CCN(Cc3ccccc3)CC2)c1O [PAC-1] (1000 nM) | 102
21 | Oc1ncc(N(CCCl)CCCl)c(O)n1 [Uracil mustard] (1000 nM) | 106
22 | O=C(O)C(=O)O.[NH-][C@@H]1CCCC[C@H]1[NH-].[Pt+2] [Oxaliplatin] (1000 nM) | 102
23 | Nc1nc2[nH]cc(CCc3ccc(C(=O)N[C@@H](CCC(=O)O)C(=O)O)cc3)c2c(=O)[nH]1 [Pemetrexed] (1000 nM) | 100
24 | O=C(O)C1(C(=O)O)CCC1.[NH2-].[NH2-].[Pt+2] [Carboplatin] (1000 nM) | 104
25 | CC[C@H](C)C(=O)O[C@H]1C[C@H](O)C=C2C=C[C@H](C)[C@H](CC[C@@H](O)C[C@@H](O)CC(=O)O)[C@H]21 [Pravastatin] (1000 nM) | 100
26 | Cc1cnc(NC(=O)Nc2cc(Br)c(C)cc2OC[C@@H]2CNCCO2)cn1 [Rabusertib] (100 nM) | 99.9
27 | COc1cc2nccc(Oc3ccc(NC(=O)Nc4cc(C)on4)c(Cl)c3)c2cc1OC [Tivozanib] (1000 nM) | 96.6

Test system: HCC1937
Test: as above
Details: incubation time: 72 h
Method in brief: as §1

Row | SMILES | normalised response [%]
28 | O=C(Cc1ccc(-c2ccc(OCCN3CCOCC3)cc2)cn1)NCc1ccccc1 [KX2-391] (1000 nM) | 115
29 | C=CCc1cccc(/C=N/NC(=O)CN2CCN(Cc3ccccc3)CC2)c1O [PAC-1] (1000 nM) | 92.5
30 | Oc1ncc(N(CCCl)CCCl)c(O)n1 [Uracil mustard] (1000 nM) | 102
31 | O=C(O)C(=O)O.[NH-][C@@H]1CCCC[C@H]1[NH-].[Pt+2] [Oxaliplatin] (1000 nM) | 97.7
32 | Nc1nc2[nH]cc(CCc3ccc(C(=O)N[C@@H](CCC(=O)O)C(=O)O)cc3)c2c(=O)[nH]1 [Pemetrexed] (1000 nM) | 112
33 | O=C(O)C1(C(=O)O)CCC1.[NH2-].[NH2-].[Pt+2] [Carboplatin] (1000 nM) | 113
34 | CC[C@H](C)C(=O)O[C@H]1C[C@H](O)C=C2C=C[C@H](C)[C@H](CC[C@@H](O)C[C@@H](O)CC(=O)O)[C@H]21 [Pravastatin] (1000 nM) | 95.4
35 | Cc1cnc(NC(=O)Nc2cc(Br)c(C)cc2OC[C@@H]2CNCCO2)cn1 [Rabusertib] (100 nM) | 128
36 | COc1cc2nccc(Oc3ccc(NC(=O)Nc4cc(C)on4)c(Cl)c3)c2cc1OC [Tivozanib] (1000 nM) | 134

Test system: BT-474
Test: as above
Details: incubation time: 72 h
Method in brief: as §1

Row | SMILES | normalised response [%]
37 | O=C(Cc1ccc(-c2ccc(OCCN3CCOCC3)cc2)cn1)NCc1ccccc1 [KX2-391] (1000 nM) | 80.8
38 | C=CCc1cccc(/C=N/NC(=O)CN2CCN(Cc3ccccc3)CC2)c1O [PAC-1] (1000 nM) | 98.8
39 | Oc1ncc(N(CCCl)CCCl)c(O)n1 [Uracil mustard] (1000 nM) | 101
40 | O=C(O)C(=O)O.[NH-][C@@H]1CCCC[C@H]1[NH-].[Pt+2] [Oxaliplatin] (1000 nM) | 95.9
41 | Nc1nc2[nH]cc(CCc3ccc(C(=O)N[C@@H](CCC(=O)O)C(=O)O)cc3)c2c(=O)[nH]1 [Pemetrexed] (1000 nM) | 99.5
